In patent US20070243215A1, “Adjuvant for Dna Vaccines” (priority 2004, published 2007):

Tested on: N202/1A tumor cells
Assay: Serum transfer and tumor cell challenge
Format: in vivo
Details: 150 μL pooled serum from treated donor mice; challenge 24 h later subcutaneously with 10^5 N202/1A tumor cells
Description: Animals were treated as in Example 1 for each of the following groups: (1) Immunized with pCMV-ECD-TM, not treated with IRM (HER-2/neu); (2) Immunized with pCMV-ECD-TM, treated with IRM2 (IRM+HER-2/neu); or (3) untreated (Control). Two weeks after the immunization period was completed, sera were harvested from the animals and pooled among animals receiving the same treatment.
150 μL of pooled serum was injected into eight-week old animals (5 animals/treatment serum). Twenty-four hours after administration of the serum, each mouse was challenged with subcutaneously with 10^5 N202/1A tumor cells and monitored to register the development of tumors.

For CC(C)Cn1cnc2c(N)nc3ccccc3c21 [IRM2, 1-(2-methylpropyl)-1H-imidazo[4,5-c]quinolin-4-amine], the “percentage of recipient mice remaining tumor free (protection against tumor development)” value was “An even greater percentage”.
